US11000555B2, “Method for preparing a limax compound and therapeutic use thereof” (GUANGXI JIUFU BIOTECHNOLOGY CO., LTD, priority 2017, dated 2021)
Marks after values point to notes of the source that are not given here.

Key:
morphine-dependent mice = experiment: Therapeutic effect on naloxone-induced withdrawal symptoms of morphine-dependent mice; format: in vivo, Kunming mice; conditions: for Times of jumping reactions of mice: naloxone 8.0 mg/kg ip
Protocol: The model of morphine-dependent mice was replicated by the dose-increasing method. […] Group (1) was a blank control group, injected subcutaneously (sc) with normal saline (0.2 ml/10 g), and groups (2)˜(5) were used to replicate the model of morphine-dependent mice by the dose-increasing method.
The administration continued for 3 days for each group. Mice were free to drink and eat. Naloxone (8.0 mg/kg, ip) was given 1 h after administrations on d1 and d3 during the treatment to induce withdrawal symptoms, and jumping reaction in 30 min and body weights before and after the inducement were observed.

[1] = tested on: morphine-induced place preference of mice; experiment: Conditioned place preference of morphine-induced mice; format: in vivo, Kunming mice
Protocol: The mice were acclimatized for 3 days, the natural place preference time of the mice was measured before the administration, so that the mice with obvious preference on one cuboid of the experimental box were excluded to clear the effect of unconditional place preference on the results. […] The observation was conducted under sound insulation conditions. […] Thus, the white cuboid was used as the non-preferred side (i.e., the companion box).
After 6 consecutive days of training and administration, the mice developed conditioned place preference.
Each group was administered for 3 consecutive days.

mice [2] = experiment: Inducing the mice to sleep by a subthreshold dose of pentobarbital sodium; format: in vivo, Kunming mice; conditions: for Number of the mice showing disappearance of righting reflex: pentobarbital sodium 30 mg/kg ip, n = 20
Protocol: Eighty Kunming mice, half males and half females, were fasted for 12 h but free to drink water. The mice were randomly divided into four groups: a blank control group, a low does Compound group (0.4 g/kg, ig), a high dose Compound group (0.8 g/kg, ig) and a positive drug control group (Estazolam, 2 mg/kg). each group of mice was administered according to the above doses (ig), and the blank control group was given the same volume of normal saline. Forty-five minutes later, each mouse was given (ip) 30 mg/kg pentobarbital sodium, and the number of mice falling asleep within 15 min was recorded by taking the absence of righting reflex more than 1 min as the indicator of falling asleep.

mice [3] = experiment: Acetic acid writhing test of mice; format: in vivo, Kunming mice; conditions: for Times of writhing: 0.6% acetic acid ip, in 20 min
Protocol: Forty Kunming mice, male, were fasted for 12 h before the experiment but free to drink water. They were randomly divided into 4 groups: a blank control group, a low dose Compound group, a high dose Compound group, and a positive control group. […] The mice were administered (ig) at a low dose (0.4 g/kg) and a high dose (0.8 g/kg) of the compound, at a volume of 0.2 ml per 10 g body weight. The positive control group was administered (ip) methadone (20 mg/kg) and the blank control group was given (ig) the same volume of normal saline. Forty-five minutes after administration, each mouse was given (ip) 0.6% acetic acid, 0.2 ml for each. The mice were then observed for writhing reaction, with abdominal contraction and hind limb extension or hip elevation regarded as positive. Times of writhing in 20 min were recorded starting from 5 min after acetic acid injection. The analgesic effect was evaluated by taking completely inhibiting writhing reaction induced by acetic acid as an indicator.

morphine-dependent rats = experiment: Therapeutic effect on naloxone-induced withdrawal symptoms of morphine-dependent rats; format: in vivo, Sprague-Dawley (SD) rats; conditions: for Scores of induced withdrawal symptoms of rats: naloxone 5.0 mg/kg ip, 30 min
Protocol: The administration continued for 3 days for each group of rats. Rats were free to drink and eat. Naloxone (5.0 mg/kg, ip) was given 45 min after administrations on d1 and d3 during the treatment to induce withdrawal symptoms, and withdrawal reaction in 30 min and body weights one hour before and after the inducement were observed.
Times of shaking like a wet dog, stereotyped acts, erecting and jumping in 30 minutes were directly scored; symptoms such as ptosis, irritability, tooth tremor, chewing, pilus erection, abnormal posture and rapid respiration were scored every 5 minutes; symptoms such as diarrhea, lacrimation, salivation and rhinorrhea were scored every 30 minutes. The sum of all scores was the total score of the withdrawal reaction. See Appendix Table 2.

mice [4] = experiment: Oral acute toxicity test of mice (maximum dose method); format: in vivo, Kunming mice; conditions: for Weight after dosing / Weight change: 14 days observation; for Weight before dosing: test group
Protocol: The test group was given 10% the compound, 0.3 ml/10 g per dose, and the control group was given the same volume of vegetable oil. Each group was administered (ig) twice a day at 8:00 and 18:00, respectively, and fasting was completed three hours after the administration (ig). All the mice received the same volume of 0.3 ml/10 g per dose, amounting to 6 g/kg BW over 24 hours. The mice were given free access to water and food after administration. The body weight, food intake, water intake, general physiological indicators, behaviors and activities, psychological status and survival status were recorded for 14 days in consecutive, 3 times a day, after several times of observation within the 24 hours that followed the administration.

[5] = Female, 6 g/kg BW over 24 hours ig
[6] = Male, 6 g/kg BW over 24 hours ig

CC1(C)O[C@H]2CC[C@@]3(C)[C@@H]([C@@H](O)[C@H](O)[C@@H]3[C@@](C)(O)CC[C@@H]3OC(C)(C)[C@H]4CC[C@]3(C)O4)[C@]2(C)CC[C@H]1O [the compound, limaxol A]
Numbers of jumping reactions of mice (mice of n = 10) (morphine-dependent mice; d 1, high dose 0.8 g/kg ig): 10 | Numbers of jumping reactions of mice, percentage (morphine-dependent mice; d 1, high dose 0.8 g/kg ig): 100% | Weight change: body weights of mice before and after induced withdrawal (morphine-dependent mice; d 1, high dose 0.8 g/kg ig): 0.26 ± 0.21 g | Times of jumping reactions of mice (morphine-dependent mice; d 1, high dose 0.8 g/kg ig): 35.0 ± 12.28 per 30 min | Numbers of jumping reactions of mice (mice of n = 10) (morphine-dependent mice; d 1, low dose 0.4 g/kg ig): 10 | Numbers of jumping reactions of mice, percentage (morphine-dependent mice; d 1, low dose 0.4 g/kg ig): 100% | Weight change: body weights of mice before and after induced withdrawal (morphine-dependent mice; d 1, low dose 0.4 g/kg ig): 0.18 ± 0.13 g | Times of jumping reactions of mice (morphine-dependent mice; d 1, low dose 0.4 g/kg ig): 13.5 ± 10.29 per 30 min | Numbers of jumping reactions of mice (mice of n = 10) (morphine-dependent mice; d 3, high dose 0.8 g/kg ig): 10 | Numbers of jumping reactions of mice, percentage (morphine-dependent mice; d 3, high dose 0.8 g/kg ig): 100% | Weight change: body weights of mice before and after induced withdrawal (morphine-dependent mice; d 3, high dose 0.8 g/kg ig): 0.43 ± 0.23 g | Times of jumping reactions of mice (morphine-dependent mice; d 3, high dose 0.8 g/kg ig): 8.5 ± 2.68 per 30 min | Numbers of jumping reactions of mice (mice of n = 10) (morphine-dependent mice; d 3, low dose 0.4 g/kg ig): 10 | Numbers of jumping reactions of mice, percentage (morphine-dependent mice; d 3, low dose 0.4 g/kg ig): 100% | Weight change: body weights of mice before and after induced withdrawal (morphine-dependent mice; d 3, low dose 0.4 g/kg ig): 0.36 ± 0.28 g | Times of jumping reactions of mice (morphine-dependent mice; d 3, low dose 0.4 g/kg ig): 6.2 ± 5.86 per 30 min | Effect on jumping reaction during induced withdrawal (morphine-dependent mice; ig, 0.4 and 0.8 g/kg): inhibited jumping reaction | Effect on weight loss of the morphine-dependent mice (morphine-dependent mice; ig, 0.4 and 0.8 g/kg): inhibited weight loss | Duration of mice staying in companion box ([1]; After administration, high dose 0.8 g/kg ig 3 days + morphine 9 mg/kg sc, 15 min observation): 511.8 ± 90.66*^ΔΔ s | Duration of mice staying in companion box ([1]; After administration, low dose 0.4 g/kg ig 3 days + morphine 9 mg/kg sc, 15 min observation): 438.1 ± 116.45^#Δ s | Duration of mice staying in companion box ([1]; Before administration (base line), high dose 0.8 g/kg + morphine 9 mg/kg group): 256.3 ± 114.43 s | Duration of mice staying in companion box ([1]; Before administration (base line), low dose 0.4 g/kg + morphine 9 mg/kg group): 296.0 ± 142.93 s | Effect on conditioned place preference of the morphine-induced mice ([1]; two doses (0.4, 0.8 g/kg) ig for 3 days): no significant effect | Effect on number of mice that fell asleep, sub-threshold pentobarbital sodium (mice [2]; 0.4, 0.8 g/kg, ig): increase the number of mice that fell asleep | Number of the mice showing disappearance of righting reflex (mice [2]; high dose 0.8 g/kg ig): 8 per group | Number of the mice showing disappearance of righting reflex (mice [2]; low dose 0.4 g/kg ig): 11 per group | Times of writhing (mice [3]; high dose 0.8 g/kg ig): 39.6 ± 13.21 | Times of writhing (mice [3]; low dose 0.4 g/kg ig): 37.10 ± 15.69 | Analgesic effect, acetic acid writhing test (mice [3]; single administration 0.4, 0.8 g/kg, ig): no obvious analgesic effect | Body Weight Change (Body Weight before Inducement − Body Weight after Inducement) (morphine-dependent rats; d 1, high dose 0.6 g/kg ig): 14.7 ± 4.08 g | Scores of induced withdrawal symptoms of rats (morphine-dependent rats; d 1, high dose 0.6 g/kg ig): 53.8 ± 16.23 | Body Weight Change (Body Weight before Inducement − Body Weight after Inducement) (morphine-dependent rats; d 1, low dose 0.3 g/kg ig): 11.8 ± 3.25 g | Scores of induced withdrawal symptoms of rats (morphine-dependent rats; d 1, low dose 0.3 g/kg ig): 74.9 ± 42.03 | Body Weight Change (Body Weight before Inducement − Body Weight after Inducement) (morphine-dependent rats; d 3, high dose 0.6 g/kg ig): 1.9 ± 2.13 g | Scores of induced withdrawal symptoms of rats (morphine-dependent rats; d 3, high dose 0.6 g/kg ig): 22.1 ± 10.90 | Body Weight Change (Body Weight before Inducement − Body Weight after Inducement) (morphine-dependent rats; d 3, low dose 0.3 g/kg ig): 4.5 ± 2.59 g | Scores of induced withdrawal symptoms of rats (morphine-dependent rats; d 3, low dose 0.3 g/kg ig): 25.5 ± 12.26 | Effect on changes of the body weight of rats (morphine-dependent rats; two doses (0.3, 0.6 g/kg) ig): no significant effect | Effect on withdrawal symptoms of morphine-dependent rats (morphine-dependent rats; two doses (0.3, 0.6 g/kg) ig): partially control the withdrawal symptoms | Toxic reaction (mice [4]; 6 g/kg BW over 24 hours ig, 14 days of observation): no toxic reaction occurred | Weight after dosing (mice [4]; [5]): 24.99 ± 1.59 g | Weight change (mice [4]; [5]): 4.06 ± 2.34 g | Weight before dosing (mice [4]; Female): 20.93 ± 1.61 g | Weight after dosing (mice [4]; [6]): 26.60 ± 0.87 g | Weight change (mice [4]; [6]): 6.13 ± 1.46 g | Weight before dosing (mice [4]; Male): 20.73 ± 1.79 g | Visual observation of heart, liver, spleen, lung, kidney (mice [4]; after putting to death, 14 days): no abnormality was found | Maximum dose as multiple of the daily dose per the same body weight for a human adult (mice [4]; human adult dose 0.02 g/kg): 300 times | Maximum dose given the mice (mice [4]; ig, twice within 24 hours, no death): 6000 mg/kg | LD50 (mice [4]; mouse, in vivo, po): could not be detected
